Measured values reported in PubChem BioAssay (NCI).
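The concentration for 50% growth inhibition is given as GI50. At the TGI there is no net growth.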

Columns and labels:
Assay in all cases: inhibition of tumour cell growth, NCI panel, 384-well format
786-0 renal = tested on: 786-0 renal
A498 renal = tested on: A498 renal
A549 NSCLC = tested on: A549 NSCLC
ACHN renal = tested on: ACHN renal
BT-549 breast = tested on: BT-549 breast
CAKI-1 renal = tested on: CAKI-1 renal
CCRF-CEM leukemia = tested on: CCRF-CEM leukemia
COLO 205 colon = tested on: COLO 205 colon
DU-145 prostate = tested on: DU-145 prostate
EKVX NSCLC = tested on: EKVX NSCLC
HCC-2998 colon = tested on: HCC-2998 colon
HCT-116 colon = tested on: HCT-116 colon
HCT-15 colon = tested on: HCT-15 colon
HL-60(TB) leukemia = tested on: HL-60(TB) leukemia
HOP-62 NSCLC = tested on: HOP-62 NSCLC
HOP-92 NSCLC = tested on: HOP-92 NSCLC
HS 578T breast = tested on: HS 578T breast
HT29 colon = tested on: HT29 colon
IGROV1 ovarian = tested on: IGROV1 ovarian
K-562 leukemia = tested on: K-562 leukemia
KM12 colon = tested on: KM12 colon
LOX IMVI melanoma = tested on: LOX IMVI melanoma
M14 melanoma = tested on: M14 melanoma
MALME-3M melanoma = tested on: MALME-3M melanoma
MCF7 breast = tested on: MCF7 breast
MDA-MB-231 breast = tested on: MDA-MB-231 breast
MDA-MB-435 melanoma = tested on: MDA-MB-435 melanoma
MDA-MB-468 breast = tested on: MDA-MB-468 breast
MOLT-4 leukemia = tested on: MOLT-4 leukemia
NCI-H226 lung = tested on: NCI-H226 lung
NCI-H23 lung = tested on: NCI-H23 lung
NCI-H322M lung = tested on: NCI-H322M lung
NCI-H460 NSCLC = tested on: NCI-H460 NSCLC
NCI-H522 lung = tested on: NCI-H522 lung
NCI/ADR-RES ovarian = tested on: NCI/ADR-RES ovarian
OVCAR-3 ovarian = tested on: OVCAR-3 ovarian
OVCAR-4 ovarian = tested on: OVCAR-4 ovarian
OVCAR-5 ovarian = tested on: OVCAR-5 ovarian
OVCAR-8 ovarian = tested on: OVCAR-8 ovarian
PC-3 prostate = tested on: PC-3 prostate
RPMI-8226 leukemia = tested on: RPMI-8226 leukemia
RXF 393 renal = tested on: RXF 393 renal
SF-268 CNS = tested on: SF-268 CNS
SF-295 CNS = tested on: SF-295 CNS
SF-539 CNS = tested on: SF-539 CNS
SK-MEL-28 melanoma = tested on: SK-MEL-28 melanoma
SK-MEL-5 melanoma = tested on: SK-MEL-5 melanoma
SK-OV-3 ovarian = tested on: SK-OV-3 ovarian
SN12C renal = tested on: SN12C renal
SNB-19 CNS = tested on: SNB-19 CNS
SNB-75 CNS = tested on: SNB-75 CNS
SW-620 colon = tested on: SW-620 colon
T-47D breast = tested on: T-47D breast
TK-10 renal = tested on: TK-10 renal
U251 glioblastoma = tested on: U251 glioblastoma
UACC-257 melanoma = tested on: UACC-257 melanoma
UACC-62 melanoma = tested on: UACC-62 melanoma
UO-31 renal = tested on: UO-31 renal

CNC(=O)c1ccc(Nc2nc(OC3CCCC3)c3c(-c4ccc5nc(C)oc5c4)c[nH]c3n2)c(OC)c1
GI50 ([…]-0 renal): 65 nM | TGI (786-0 renal): 14200 nM | GI50 (A498 renal): 239 nM | TGI (A498 renal): 9430 nM | GI50 (A549 NSCLC): 22.3 nM | TGI (A549 NSCLC): 2890 nM | GI50 (ACHN renal): 87.8 nM | TGI (ACHN renal): 15500 nM | GI50 (BT-549 breast): 94.9 nM | TGI (BT-549 breast): 65100 nM | GI50 (CAKI-1 renal): 387 nM | TGI (CAKI-1 renal): 3290 nM | GI50 (CCRF-CEM leukemia): 22.6 nM | TGI (CCRF-CEM leukemia): 44.5 nM | GI50 (COLO 205 colon): 33.1 nM | TGI (COLO 205 colon): 233 nM | GI50 (DU-145 prostate): 74.3 nM | TGI (DU-145 prostate): 15800 nM | GI50 (EKVX NSCLC): 187 nM | TGI (EKVX NSCLC): 15300 nM | GI50 (HCC-2998 colon): 24500 nM | TGI (HCC-2998 colon): > 100000 nM | GI50 (HCT-116 colon): 46.7 nM | TGI (HCT-116 colon): 11000 nM | GI50 (HCT-15 colon): 37.5 nM | TGI (HCT-15 colon): 2840 nM | GI50 (HL-60(TB) leukemia): 40.8 nM | TGI (HL-60(TB) leukemia): 1310 nM | GI50 (HOP-62 NSCLC): 37.6 nM | TGI (HOP-62 NSCLC): 5770 nM | GI50 (HOP-92 NSCLC): 681 nM | TGI (HOP-92 NSCLC): 9340 nM | GI50 (HS 578T breast): 77.5 nM | TGI (HS 578T breast): 891 nM | GI50 (HT29 colon): 84.5 nM | TGI (HT29 colon): > 100000 nM | GI50 (IGROV1 ovarian): 145 nM | TGI (IGROV1 ovarian): 15800 nM | GI50 (K-562 leukemia): 121 nM | TGI (K-562 leukemia): 19400 nM | GI50 (KM12 colon): 81.7 nM | TGI (KM12 colon): > 100000 nM | GI50 (LOX IMVI melanoma): 45.4 nM | TGI (LOX IMVI melanoma): 14200 nM | GI50 (M14 melanoma): 84.3 nM | TGI (M14 melanoma): 63800 nM | GI50 (MALME-3M melanoma): 93.6 nM | TGI (MALME-3M melanoma): 14200 nM | GI50 (MCF7 breast): 130 nM | TGI (MCF7 breast): 15700 nM | GI50 (MDA-MB-231 breast): 290 nM | TGI (MDA-MB-231 breast): > 100000 nM | GI50 (MDA-MB-435 melanoma): 11000 nM | TGI (MDA-MB-435 melanoma): 49100 nM | GI50 (MDA-MB-468 breast): 45.4 nM | TGI (MDA-MB-468 breast): 226 nM | GI50 (MOLT-4 leukemia): 11.8 nM | TGI (MOLT-4 leukemia): 30.4 nM | GI50 (NCI-H226 lung): 381 nM | TGI (NCI-H226 lung): 9700 nM | GI50 (NCI-H23 lung): 64.3 nM | TGI (NCI-H23 lung): 615 nM | GI50 (NCI-H322M lung): 593 nM | TGI (NCI-H322M lung): 52800 nM | GI50 (NCI-H460 NSCLC): 34.8 nM | TGI (NCI-H460 NSCLC): 1710 nM | GI50 (NCI-H522 lung): 99.8 nM | TGI (NCI-H522 lung): 1440 nM | GI50 (NCI/ADR-RES ovarian): 316 nM | TGI (NCI/ADR-RES ovarian): 60500 nM | GI50 (OVCAR-3 ovarian): 169 nM | TGI (OVCAR-3 ovarian): 965 nM | GI50 (OVCAR-4 ovarian): 1900 nM | TGI (OVCAR-4 ovarian): 17700 nM | GI50 (OVCAR-5 ovarian): 146 nM | TGI (OVCAR-5 ovarian): > 100000 nM | GI50 (OVCAR-8 ovarian): 45.8 nM | TGI (OVCAR-8 ovarian): 12500 nM | GI50 (PC-3 prostate): 896 nM | TGI (PC-3 prostate): 15200 nM | GI50 (RPMI-8226 leukemia): 61.8 nM | TGI (RPMI-8226 leukemia): 271 nM | GI50 (RXF 393 renal): 106 nM | TGI (RXF 393 renal): 1960 nM | GI50 (SF-268 CNS): 18.5 nM | TGI (SF-268 CNS): 72.7 nM | GI50 (SF-295 CNS): 265 nM | TGI (SF-295 CNS): > 100000 nM | GI50 (SF-539 CNS): 47.6 nM | TGI (SF-539 CNS): 1840 nM | GI50 (SK-MEL-28 melanoma): 5580 nM | TGI (SK-MEL-28 melanoma): 30500 nM | GI50 (SK-MEL-5 melanoma): 73.5 nM | TGI (SK-MEL-5 melanoma): 1550 nM | GI50 (SK-OV-3 ovarian): 352 nM | TGI (SK-OV-3 ovarian): 5280 nM | GI50 (SN12C renal): 224 nM | TGI (SN12C renal): 2760 nM | GI50 (SNB-19 CNS): 225 nM | TGI (SNB-19 CNS): 41600 nM | GI50 (SNB-75 CNS): 68.6 nM | TGI (SNB-75 CNS): 1780 nM | GI50 (SW-620 colon): 53.5 nM | TGI (SW-620 colon): 762 nM | GI50 (T-47D breast): 250 nM | TGI (T-47D breast): > 100000 nM | GI50 (TK-10 renal): 626 nM | TGI (TK-10 renal): > 100000 nM | GI50 (U251 glioblastoma): 63 nM | TGI (U251 glioblastoma): 16000 nM | GI50 (UACC-257 melanoma): 328 nM | TGI (UACC-257 melanoma): 47300 nM | GI50 (UACC-62 melanoma): 167 nM | TGI (UACC-62 melanoma): 96400 nM | GI50 (UO-31 renal): 89.8 nM | TGI (UO-31 renal): > 100000 nM
